# From patent publication US20230407243A1, “GENETIC PLATFORM TO INVESTIGATE THE FUNCTIONS OF BACTERIAL DRUG EFFLUX PUMPS” (priority 2022, published 2023)
# Where two headings read alike, the source gives them in different places.
# Key:
# Type in all cases: cell-based, Escherichia coli
# [1] = system: EKO-35 tufA (pCA24N); experiment: MIC of strains harboring ASKA plasmids; details: 0.1 mM IPTG
# [2] = system: K-12 (empty pCA24N); experiment: MIC of strains harboring ASKA plasmids; details: 0.1 mM IPTG; for MIC: Escherichia coli, K-12 empty pCA24N, read-out: MIC
# [3] = system: ΔtolC (empty pCA24N); experiment: microbe, parasite or virus in culture; details: 0.1 mM IPTG; for MIC: Escherichia coli, ΔtolC empty pCA24N
# [4] = system: EKO-35 wcaC (pCA24N); experiment: MIC of strains harboring ASKA plasmids; details: 0.1 mM IPTG; for MIC: EKO-35 wcaC
# [5] = 4 μg/mL chloramphenicol selection
compound,measurement,setting,value
O=C(Nc1ccccc1C(=O)Nc1nnc(C(F)(F)F)s1)c1ccccc1Cl [compound 19],"MIC, EKO-35 tufA (pCA24N), Chlor +",[1]; [5],>5 μg/mL
same,"MIC, EKO-35 tufA (pCA24N), Chlor −",[1]; no plasmid selection,>5 μg/mL
same,"MIC, K-12 (empty pCA24N), Chlor +",[2]; 25 μg/mL chloramphenicol selection,>5 μg/mL
same,"MIC, K-12 (empty pCA24N), Chlor −",[2]; no plasmid selection,>5 μg/mL
same,"MIC, ΔtolC (empty pCA24N), Chlor −",[3]; no plasmid selection,2.5 μg/mL
same,"MIC, ΔtolC (empty pCA24N), Chlor +",[3]; with chloramphenicol plasmid selection,2.5 μg/mL
same,"MIC, EKO-35 wcaC (pCA24N), Chlor +",[4]; [5],>5 μg/mL
same,"MIC, EKO-35 wcaC (pCA24N), Chlor −",[4]; no plasmid selection,>5 μg/mL
COc1cc(Cc2cnc(N)nc2N)cc(OC)c1OC [trimethoprim],MIC,[2]; Chlor + (25 μg/mL chloramphenicol),0.781 mg/L
same,MIC,[2]; Chlor −,0.781 mg/L
same,MIC,[3]; Chlor +,1.56 mg/L
same,MIC,[3]; Chlor −,0.195 mg/L
same,MIC,[4]; Chlor + (4 μg/mL),0.781 mg/L
same,MIC,"[4]; Escherichia coli, Chlor −, read-out: MIC",0.781 mg/L
